Experimental data from patent US20260207600A1, “METHODS OF TREATMENT WITH MYOSIN MODULATOR” (MYOKARDIA, INC., priority 2019, published 2026).

System: subjects with symptomatic non-obstructive hypertrophic cardiomyopathy (nHCM)
Experiment: […]-HCM Phase 2 randomized, double-blind, placebo-controlled, concentration-guided study
Assay type: in vivo, human
Design: Overall KCCQ Summary Score / Clinical KCCQ Summary Score / Change in Overall KCCQ Summary Score, Mean / Change in Clinical KCCQ Summary Score, Mean / Change from Baseline in Overall KCCQ Summary Score, Mean / Change from Baseline in Clinical KCCQ Summary Score, Mean: scale not given here
Conditions: for Composite functional endpoint Type 1, % / Composite functional endpoint Type 2, % / Met composite functional endpoint, either type, %: Combined Subgroup
Source text: This is a Phase 2 trial designed to assess the safety and tolerability of a range of exposures over 16 weeks of treatment in subjects with symptomatic, non-obstructive HCM. All study subjects were required to be diagnosed with non-obstructive HCM, with left ventricular wall thickness either ≥15 mm or ≥13 mm with a family history of HCM, LVEF≥55%, NYHA classifications of Class II or III, and NT-proBNP levels of greater than 300 pg/mL at rest. Baseline characteristics, such as age, weight, gender, pathogenic mutation status, background beta blocker use, NYHA classification and exercise capacity were approximately evenly distributed between active and placebo arms.
This double-blind study enrolled 59 individuals with nHCM (Left ventricular outflow tract gradient<30 mmHg; resting or provoked), NYHA Class II or III, and LVEF≥55%. Subjects were randomized 1:1:1 to one of two target plasma drug concentrations (Group 1: ~200 ng/mL and Group 2: ~ 500 ng/ml) or placebo for 16 weeks, followed by an 8-week washout. […] Predefined criteria, including LVEF (LVEF≤45%), guided study drug discontinuation if indicated. Cardiopulmonary exercise testing was performed at baseline and Week 16 to assess the impact on exercise capacity.
Dose adjustments will be based on PK parameters. Assessments include safety, standardized cardiopulmonary exercise testing (CPET) with measurement of peak oxygen consumption, echocardiography to evaluate left ventricular ejection fraction (LVEF) and parameters of diastolic function, symptoms, quality of life, daily step counts, and NT-proBNP at rest and after exercise. In addition, subjects may consent to hypertrophic cardiomyopathy genotyping and pharmacogenetic sampling.
Cardiac Troponin I levels were evaluated on plasma and serum samples of subjects at baseline and at various time points in the trial (Abbott Architect Stat Troponin-I assay (Ref. 2K41)). Cardiac Troponin T levels were evaluated on plasma and serum samples of subjects at baseline and at various time points in the trial (Roche Elecsys Troponin T hs assay) (Ref. 08469873190) performed on a cobas e 801 analyzer). NT-proBNP levels were evaluated on plasma samples using the Roche Elecsys proBNPII assay (Ref. 07027664190) on a cobas e 801 analyzer.
5 mg QD was used as the starting dose for the study. All subjects in the active treatment groups started on 5 mg QD. […] PK modeling was used to guide blinded dose adjustment at the Week 6 visit, based on the plasma concentrations collected at Week 4. Subjects in the placebo group underwent the same assessments in order to preserve the blind. […] Subjects were instructed to take the drug under fasting conditions, at approximately the same time each day, and with 8 ounces of water.
To achieve the target concentration, if a subject's Week 4 concentration was >450 ng/ml, the subject's dose was decreased to 2.5 mg QD; if Week 4 concentration was 110-450 ng/mL, the dose was maintained at 5 mg QD; and if Week 4 concentration was <110 ng/mL, the dose was increased to 10 mg QD.
Subjects were monitored for adverse events (AE), including high blood plasma concentration, systolic dysfunction, QT prolongation, and LVEF decrease. If any of the following thresholds were hit PK 1000 or more, QTcF 500, or LVEF 45%, the subjects were discontinued on drug. Specifically, high blood plasma concentration was defined as blood plasma concentration greater than or equal to 1000 ng/ml; QT prolongation was defined as QTcF greater than or equal to 500 ms; and LVEF shortening was defined as LVEF less than or equal to 45% (including serious adverse event (SAE) for LVEF less than or equal to 30%).
Efficacy and pharmacodynamics assessments were also made. Resting transthoracic echocardiography measurements were taken at Weeks 4, 8, 12 and 16. Ejection fraction (2-D) and LV frantional shortening were analyzed along with other echocardiographic at baseline measures including measure of diastolic function. […]

[1] = Elevated Troponin subgroup (N = 13), Mean
[2] = Elevated Troponin subgroup, Mean Difference vs Placebo
[3] = ITT, Group 1 ~200 ng/mL (n = 19)
[4] = ITT, Group 2 ~500 ng/mL (n = 21)
[5] = ITT, Week 16, pooled-mavacamten group
[6] = Other subgroup, Mean Difference vs Placebo
[7] = Subgroup with Elevated E/e′ at Baseline, Difference mavacamten vs placebo
[8] = Subgroup with Elevated E/e′ at Baseline, Pooled (n = 14)
[9] = Subgroup with Elevated cTnI at Baseline, Difference mavacamten vs placebo
[10] = Subgroup with Elevated cTnI at Baseline, Pooled (n = 13)
[11] = week 16, pooled-mavacamten group

CC(C)n1c(=O)cc(N[C@@H](C)c2ccccc2)[nH]c1=O [mavacamten, (S)-3-Isopropyl-6-((1-phenylethyl)amino)pyrimidine-2, 4(1H,3H)-dione]
participants with a decrease in LVEF to ≤45% (5 participants among the 40 receiving active treatment, weeks 11-12): 12.5% | Composite functional endpoint Type 1, % (Group 1 ~200 ng/mL (n = 9)): (11.1) % | Composite functional endpoint Type 2, % (Group 1 ~200 ng/mL (n = 9)): (22.2) % | Met composite functional endpoint, either type, % (Group 1 ~200 ng/mL (n = 9)): (33.3) % | Composite functional endpoint Type 1, % (Group 2 ~500 ng/mL (n = 12)): (8.3) % | Composite functional endpoint Type 2, % (Group 2 ~500 ng/mL (n = 12)): (25.0) % | Met composite functional endpoint, either type, % (Group 2 ~500 ng/mL (n = 12)): (33.3) % | Composite functional endpoint Type 1, % (Pooled (n = 21)): (9.5) % | Composite functional endpoint Type 2, % (Pooled (n = 21)): (23.8) % | Met composite functional endpoint, either type, % (Pooled (n = 21)): (33.3) % | Average Daily Accelerometry Unit [1]: 136328 | Clinical KCCQ Summary Score [1]: 6.891 | NYHA Class [1]: −0.462 | Overall KCCQ Summary Score [1]: 6.410 | Peak VO2 [1]: 1.475 mL/min/kg | Serum NT-proBNP [1]: -950.462 ng/L | Serum Troponin I [1]: -0.123 ng/mL | Average Daily Accelerometry Unit [2]: 350347 | Clinical KCCQ Summary Score [2]: 8.766 | NYHA Class [2]: −0.262 | Overall KCCQ Summary Score [2]: 1.896 | Peak VO2 [2]: 2.695 mL/min/kg | Serum NT-proBNP [2]: -784.062 ng/L | Serum Troponin I [2]: -0.083 ng/mL | participants achieving the composite functional endpoint (ITT, Group 1): 16% | Change in Clinical KCCQ Summary Score, Mean [3]: 0.11 | Change in LVEDV, Mean [3]: 1.15 mL | Change in LVEF, Mean [3]: −2.30% | Change in Lateral e′, Mean [3]: 0.34 cm/s | Change in NYHA Class, Mean [3]: −0.6 | Change in Overall KCCQ Summary Score, Mean [3]: 0.35 | Change in Peak VO2, Mean [3]: 0.36 mL/min/kg | Change in Septal e′, Mean [3]: 0.64 cm/s | NT-proBNP, Geometric mean, percent change [3]: −47.1% | cTnI, Geometric mean, percent change [3]: −23.4% | participants achieving the composite functional endpoint (ITT, Group 2): 29% | Change in Clinical KCCQ Summary Score, Mean [4]: 5.66 | Change in LVEDV, Mean [4]: 6.50 mL | Change in LVEF, Mean [4]: −5.61% | Change in Lateral e′, Mean [4]: 1.46 cm/s | Change in NYHA Class, Mean [4]: −0.3 | Change in Overall KCCQ Summary Score, Mean [4]: 6.24 | Change in Peak VO2, Mean [4]: 0.12 mL/min/kg | Change in Septal e′, Mean [4]: 1.60 cm/s | NT-proBNP, Geometric mean, percent change [4]: −57.9% | cTnI, Geometric mean, percent change [4]: −41.0% | Change in Clinical KCCQ Summary Score, Mean (ITT, Pooled (n = 40)): 3.37 | Change in LVEDV, Mean (ITT, Pooled (n = 40)): 4.04 mL | Change in LVEF, Mean (ITT, Pooled (n = 40)): −4.09% | Change in Lateral e′, Mean (ITT, Pooled (n = 40)): 0.94 cm/s | Change in NYHA Class, Mean (ITT, Pooled (n = 40)): −0.4 | Change in Overall KCCQ Summary Score, Mean (ITT, Pooled (n = 40)): 3.82 | Change in Peak VO2, Mean (ITT, Pooled (n = 40)): 0.22 mL/min/kg | Change in Septal e′, Mean (ITT, Pooled (n = 40)): 1.17 cm/s | NT-proBNP, Geometric mean, percent change (ITT, Pooled (n = 40)): −53.2% | cTnI, Geometric mean, percent change (ITT, Pooled (n = 40)): −34.0% | cTnI geometric mean difference [5]: -0.008 ng/mL | cTnI geometric mean, decrease [5]: 34% | Average Daily Accelerometry Unit (Other subgroup (N = 27), Mean): 82413 | Clinical KCCQ Summary Score (Other subgroup (N = 27), Mean): 1.195 | NYHA Class (Other subgroup (N = 27), Mean): −0.417 | Overall KCCQ Summary Score (Other subgroup (N = 27), Mean): 2.210 | Peak VO2 (Other subgroup (N = 27), Mean): -0.530 mL/min/kg | Serum NT-proBNP (Other subgroup (N = 27), Mean): -280.667 ng/L | Serum Troponin I (Other subgroup (N = 27), Mean): -0.003 ng/mL | Average Daily Accelerometry Unit [6]: 293157 | Clinical KCCQ Summary Score [6]: −5.964 | NYHA Class [6]: 0.122 | Overall KCCQ Summary Score [6]: −4.495 | Peak VO2 [6]: -1.807 mL/min/kg | Serum NT-proBNP [6]: -178.513 ng/L | Serum Troponin I [6]: -0.004 ng/mL | Change from Baseline in Clinical KCCQ Summary Score, Mean [7]: 4.1 | Change from Baseline in LVEDVi, Mean [7]: 3.9 mL/m^2 | Change from Baseline in NT-proBNP, Mean [7]: -355 ng/L | Change from Baseline in NYHA Class, Mean [7]: 0.0 | Change from Baseline in Overall KCCQ Summary Score, Mean [7]: 0.4 | Change from Baseline in Peak VO2, Mean [7]: 1.9 mL/min/kg | Change from Baseline in cTnI, Mean [7]: -0.07 ng/mL | Change from Baseline in Clinical KCCQ Summary Score, Mean [8]: 4.6 | Change from Baseline in LVEDVi, Mean [8]: 2.8 mL/m^2 | Change from Baseline in NT-proBNP, Mean [8]: -656 ng/L | Change from Baseline in NYHA Class, Mean [8]: −0.4 | Change from Baseline in Overall KCCQ Summary Score, Mean [8]: 4.7 | Change from Baseline in Peak VO2, Mean [8]: 1.2 mL/min/kg | Change from Baseline in cTnI, Mean [8]: -0.09 ng/mL | Change from Baseline in Clinical KCCQ Summary Score, Mean [9]: 8.8 | Change from Baseline in LVEDVi, Mean [9]: 0.042 mL/m^2 | Change from Baseline in NT-proBNP, Mean [9]: -784 ng/L | Change from Baseline in NYHA Class, Mean [9]: −0.3 | Change from Baseline in Overall KCCQ Summary Score, Mean [9]: 1.9 | Change from Baseline in Peak VO2, Mean [9]: 2.70 mL/min/kg | Change from Baseline in cTnI, Mean [9]: -0.083 ng/mL | Change from Baseline in Clinical KCCQ Summary Score, Mean [10]: 6.9 | Change from Baseline in LVEDVi, Mean [10]: 0.79 mL/m^2 | Change from Baseline in NT-proBNP, Mean [10]: -951 ng/L | Change from Baseline in NYHA Class, Mean [10]: −0.5 | Change from Baseline in Overall KCCQ Summary Score, Mean [10]: 6.4 | Change from Baseline in Peak VO2, Mean [10]: 1.47 mL/min/kg | Change from Baseline in cTnI, Mean [10]: -0.12 ng/mL | subjects with transient ejection fraction reductions below the protocol-defined threshold of 45% (active drug arms): five | participants achieving the composite functional endpoint (combined subgroup (elevated cTnI or E/e′average >14 at baseline), mavacamten-treated): 33% | study subjects in whom cTnI levels remained unchanged (elevated cTnI subgroup, week 16 (2 of 13)): 15.4% | study subjects in whom cTnI levels decreased (elevated cTnI subgroup, week 16 vs baseline (11 of 13)): 84.6% | Serious adverse events (SAEs), frequency in subjects (subjects receiving mavacamten, placebo arm 21%): 10% | percentage change in cardiac troponin I from baseline (treated individuals): 30-80% | NT-proBNP geometric mean, decrease (week 16, Group 1): 47% | NT-proBNP geometric mean, decrease (week 16, Group 2): 58% | NT-proBNP geometric mean difference [11]: -435 pg/mL | NT-proBNP geometric mean, decrease [11]: 53%
